According to US5516790A, “Synthesis and application of alkyl-substituted dibenzofurans as antitumorigenic agents” (Texas A&M University System Technology Licensing Office, priority 1994, dated 1996):
Like-named read-outs stand apart in the source and are kept apart here.

Experiments:
[1] = tested on: estrogen receptor; settings: rat, in vivo; cited from earlier work
[2] = tested on: nuclear ER; experiment: Nuclear ER levels in MCF-7 cells; assay type: cell-based, human
Method: MCF-7 cells, obtained from American Type Culture Collection (Rockville, Ma.), were maintained at 37° C. in closed Corning T-25, 75 or 150 cm^2 flasks (Corning Glassworks, Corning, N.Y.) and passaged in logarithmic growth phase.
For the 2,3,7,8-TCDD antiestrogenicity studies, cells were treated 24 hours prior to harvesting with various concentrations of 2,3,7,8-TCDD (0.1 nM to 100 nM 2,3,7,8-TCDD). Interactive effects between 2,3,7,8-TCDD and estradiol were conducted using these same concentrations of 2,3,7,8-TCDD and 10 nM estradiol. […]
MCF-7 cells from a single near confluent T-25 flask were incubated at 37° C. for 0.5 hours prior to harvesting with 10 nM 2,4,6,7-[^3H]-estradiol. The medium was then decanted and the cells were rinsed once with Hanks' balanced salt solution containing 1 mM EDTA. The cells were collected by centrifugation, washed gently in 2 ml of TEDG buffer and homogenized in 300 μl of TEDG buffer containing protease inhibitors [soybean trypsin inhibitor 5 mg/ml (Sigma), leupetin 1 mg/ml (Sigma), and phenylmethylsulfonyl fluoride 1 mg/ml (Sigma) by 40 strokes of a Dounce homogenizer. The homogenate was centrifuged at 800×g for 10 minutes. The crude nuclear pellet was resuspended in 300 μl of TEDGK buffer (10 mM Tris-HCl, 1.5 mM EDTA-4Na, 10 mM dithiothreitol, 10% (v/v) glycerol, 0.8 M KCl, pH 8.5 at 4° C.). The nuclear ER levels were then determined as described below.
The nuclear extract previously obtained was incubated with 10 nM [^3 H]-estradiol plus or minus radioinert diethylstilbestrol for 1 hour at 0-4° C., with resuspension by agitation every 15 minutes. The sample was then centrifuged at 180,000×g for 30 minutes, then 200 μl of the supernatant obtained was layered onto linear 1-20% sucrose gradients prepared in TEDGMK buffer. As before, the gradients were centrifuged at 406,000×g for 2.5 hours in a vertical rotor. Following centrifugation, 30 fractions of […] were collected and the radioactivity in each sample was determined.

[3] = tested on: nuclear ER; settings: cited from earlier work
[4] = tested on: MCF-7 human breast cancer cells; settings: Biegel, 1990; cited from earlier work
[5] = tested on: female rat uterus; assay type: in vivo, female Sprague/Dawley rats
Method: TCDD or MCDF was co-administered with a second dose of estradiol and the animals were killed 48-hours later. A second group of animals was similarly treated with corn oil, TCDD, MCDF, or TCDD plus MCDF, all administered in corn oil at 10 ml/kg and terminated 72 hours later.
The animals were terminated by cervical dislocation. Livers were perfused with ice-cold TEDG buffer (10 mM Tris-HCl, 1.5 mM EDTA-4Na, 1 mM dithiothreitol, 10% glycerol (v/v), pH 7.4). Following perfusion in situ, livers were removed, weighed, and homogenized in ice-cold TEDG buffer. Uteri were also removed, weighed, and homogenized in ice-cold buffer. The homogenates were then centrifuged at 800×g […] for 15 minutes and the nuclear pellets were stored at -80° C. The supernatants were further centrifuged at 180,000×g for 1.5 hour. The cytosolic supernatant was also stored at -80° C. Estrogen and progesterone receptor levels were determined within 7 days.

[6] = tested on: 52-kDa protein; assay type: cell-based, human; settings: MCDF
Method: (§1) On day 0, the media was removed and the cells were rinsed two times with PBS. […] The cells were allowed to incubate for 48 h. […] After 6 h, the media was removed, 10 μl was counted and the remaining media was used for analysis of secreted proteins.
(§2) The secreted proteins were analyzed by sodium dodecyl sulfate (SDS) polyacrylamide gel electrophoresis; 30 μl of the media was mixed with an equal volume of buffer containing SDS, β-mercaptoethanol, glycerol, Tris and bromophenol blue. The samples were heated for 2 minutes in a boiling water bath and 50 μl of each sample was loaded onto a 1.5 mm thick 12% acrylamide slab gel (containing 0.075% bisacrylamide) with a 3% stacking gel (containing 0.15% bisacrylamide). The gels were run at […] overnight and processed for fluorography (using Enhance: Dupont) and exposed to Kodak X-OMAT film for 10 days at -80° C. The molecular weights of the proteins were estimated by their mobility relative to a set of standard proteins with known molecular weights.
(§3) The incorporation of ^35 S-methionine into the 34-kDa, 52-kDa and 160-kDa proteins was estimated by scanning the films using a Zeineh Soft Laser Scanning Densitometer (model SLR-20/10) from Biomedical Instruments,Inc. The percentage of the area of the scans due to the particular protein was then compared between the experimental and control samples and the results are presented as means ± SD for at least three samples per treatment group.

[7] = tested on: 34-kDa protein; assay type: cell-based, human; settings: for Protein Secretion, 34-kDa: 2880 min
Method: as §1, §2, §3

[8] = tested on: 160-kDa protein; assay type: cell-based, human; settings: for Protein Secretion, 160-kDa: 2880 min
Method: as §1, §2, §3

[9] = tested on: progesterone receptor; settings: rat, in vivo; cited from earlier work

Cc1cc(Cl)cc2c1oc1cc(Cl)cc(Cl)c12 [MCDF, 6-methyl 1,3,8-trichlorodibenzofuran]
upregulation of uterine nuclear and cytosolic estrogen receptor levels by 17β-estradiol [1]: inhibits
uterine and hepatic cytosolic and nuclear estrogen receptor levels [1]: dose response decrease
ERn ([2]; 2,3,7,8-TCDD (10 nM) + MCDF (15 μM)): 147.5(9.6) fmol/mg protein
ERn ([2]; 2,3,7,8-TCDD (10 nM) + MCDF (50 μM)): 136.0(14.7) fmol/mg protein
ERn ([2]; 2,3,7,8-TCDD (10 nM) + MCDF (75 μM)): 133.1(10.4) fmol/mg protein
ERn ([2]; 2,3,7,8-TCDD (10 nM) + MCDF (100 μM)): 123.1(7.1) fmol/mg protein
ERn ([2]; 2,3,7,8-TCDD (10 nM) + MCDF (150 μM)): 129.3(2.9) fmol/mg protein
ERn ([2]; 2,3,7,8-TCDD (25 nM) + MCDF (15 μM)): 146.9(9.6) fmol/mg protein
ERn ([2]; 2,3,7,8-TCDD (25 nM) + MCDF (50 μM)): 85.5(16.5) fmol/mg protein
ERn ([2]; 2,3,7,8-TCDD (25 nM) + MCDF (75 μM)): 91.3(9.7) fmol/mg protein
ERn ([2]; 2,3,7,8-TCDD (25 nM) + MCDF (100 μM)): 100.5 (10.4) fmol/mg protein
ERn ([2]; 2,3,7,8-TCDD (25 nM) + MCDF (150 μM)): 108.1(18.1) fmol/mg protein
ERn levels in MCF-7 cells ([2]; MCDF): significantly decreased
ERn ([2]; MCDF alone (15 μM)): 207.5 (6.6) fmol/mg protein
ERn ([2]; MCDF alone (50 μM)): 171.6 (13.7) fmol/mg protein
ERn ([2]; MCDF alone (100 μM)): 135.8 (4.5) fmol/mg protein
ERn ([2]; MCDF alone (150 μM)): 114.2 (7.9) fmol/mg protein
ERn levels, combined treatment vs either 2,3,7,8-TCDD or MCDF ([2]; MCDF plus 2,3,7,8-TCDD): not significantly different
combined effects on ERn levels in MCF-7 cells ([2]; MCDF plus 2,3,7,8-TCDD): clearly not additive
nuclear ER levels ([2]; TCDD (10 nM), MCDF (100 nM)): decrease in nuclear ER levels
ERn ([2]; alone (75 μM)): 141.8 (13.6) fmol/mg protein
ERn ([2]; estradiol (10 nM) + 2,3,7,8-TCDD (10 nM) plus MCDF (15 nM)): 133.1 (14.3) fmol/mg protein
ERn ([2]; estradiol (10 nM) + 2,3,7,8-TCDD (10 nM) plus MCDF (50 μM)): 122.3 (5.5) fmol/mg protein
ERn ([2]; estradiol (10 nM) + 2,3,7,8-TCDD (10 nM) plus MCDF (100 μM)): 125.5 (9.7) fmol/mg protein
ERn ([2]; estradiol (10 nM) + 2,3,7,8-TCDD (25 nM) plus MCDF (15 μM)): 132.6 (2.1) fmol/mg protein
ERn ([2]; estradiol (10 nM) + 2,3,7,8-TCDD (25 nM) plus MCDF (50 μM)): 130.5 (5.3) fmol/mg protein
ERn ([2]; estradiol (10 nM) + 2,3,7,8-TCDD (25 μM) plus MCDF (100 μM)): 123.8 (8.3) fmol/mg protein
ERn ([2]; estradiol (10 nM) + MCDF (15 μM)): 113.4 (3.9) fmol/mg protein
ERn ([2]; estradiol (10 nM) + MCDF (50 μM)): 103.4 (17.6) fmol/mg protein
ERn ([2]; estradiol (10 nM) + MCDF (100 μM)): 106.4 (7.9) fmol/mg protein
17β-estradiol-induced accumulation of nuclear ER levels in MCF-7 cells [3]: inhibits
17β-estradiol-induced growth of MCF-7 cells [4]: inhibits
uterine wet weights compared to corn oil treated animals ([5]; MCDF alone): significantly decreased
estradiol induced increase in uterine wet weight ([5]; co-treated animals): partially inhibited
Uterine Wet Weight ([5]; cotreatment with E-2): 0.255 ± 0.031 % body wt
Uterine Wet Weight ([5]; rat, in vivo): 0.090 ± 0.113 % body wt
17β-estradiol-induced secretion of the 52-kDa protein [6]: inhibits
Protein Secretion, 34-kDa ([7]; 17β-estradiol + MCDF): 78 % of Control
17β-estradiol-induced secretion of the 34-kDa protein ([7]; MCDF): inhibits
Protein Secretion, 34-kDa ([7]; MCDF alone (100 nM)): 80 % of Control
Protein Secretion, 160-kDa ([8]; 17β-estradiol + MCDF): 76 % of Control
17β-estradiol-induced secretion of the 160-kDa protein ([8]; MCDF): inhibits
Protein Secretion, 160-kDa ([8]; MCDF alone (100 nM)): 72 % of Control
upregulation of uterine nuclear and cytosolic progesterone receptor levels by 17β-estradiol [9]: inhibits
uterine and hepatic cytosolic and nuclear progesterone receptor levels [9]: dose response decrease
